From PubChem BioAssay AID198 (DTP/NCI, 2004)
Values joined by “and” are separate entries in the source; they are usually repeats but may differ in a detail not shown here. Equal values may be shown once. Inconclusive results and toxic doses are left out. *1 amine or outer side, *2 acyl side, *3 side chain or, on linkers, in order; H or OH if unused. Where a SMILES comes first, the peptide text is derived from it. Bridges are numbered along the chain shown (N, C = ends). Roman numbers before positions name the chains, in order. [ ]: non-standard residue; d: D form. Actinocin(9to1) = Cc1c2oc3c(C)ccc(C(=O)[*:1])c3nc-2c(C(=O)[*:2])c(N)c1=O; aThr = C[C@H](O)[C@H](N)C(=O)O; NMeV = CN[C@H](C(=O)O)C(C)C; Sar = CNCC(=O)O

Test system: B16 melanoma ip, C57BL/6 mice, median survival T/C
Assay: NCI In Vivo Anticancer Drug Screen. Data for tumor model B16 Melanoma (intraperitoneal) in C57BL/6 mice
Conditions: endpoint: median survival time, schedule: Q01DX009 (ip), higher = longer survival
Description: The antitumor activity of compounds was measured in mice bearing transplantable tumors. Survival or tumor size were measured and the results are expressed as the measurement made in the treated group (T) divided by the measurement made in the vehicle treated control group (C). The tumor model used in this assay is B16 Melanoma (intraperitoneal) in C57BL/6 mice

[1] = dose: 25.0 mg/kg/injection, vehicle: saline with Tween-80
[2] = dose: 3.13 mg/kg/injection, vehicle: saline
[3] = dose: 25.0 mg/kg/injection, vehicle: saline
[4] = dose: 0.03 mg/kg/injection, vehicle: saline
[5] = dose: 0.05 mg/kg/injection, vehicle: saline
[6] = dose: 0.1 mg/kg/injection, vehicle: saline
[7] = dose: 0.2 mg/kg/injection, vehicle: saline
[8] = dose: 50.0 mg/kg/injection, vehicle: saline
[9] = dose: 100.0 mg/kg/injection, vehicle: saline
[10] = dose: 200.0 mg/kg/injection, vehicle: saline

CC(C)S(=O)(=O)/C(Cl)=C(/Cl)C(Cl)=C(Cl)Cl
T/C [1]: 94 % of control
T/C (dose: 50.0 mg/kg/injection, vehicle: saline with Tween-80): 97 % of control

CN(C)CCCN1c2ccccc2Sc2ccc(Cl)cc21
T/C [2]: 100 % of control and 97 % of control
T/C (dose: 6.25 mg/kg/injection, vehicle: saline): 100 % of control and 102 % of control
T/C (dose: 12.5 mg/kg/injection, vehicle: saline): 111 % of control and 105 % of control
T/C [3]: 100 % of control and 108 % of control

Cc1c2oc3c(C)ccc(C(=O)N[C@@H]4C(=O)N[C@H](C(C)C)C(=O)N5CCC[C@H]5C(=O)N(C)CC(=O)N(C)[C@@H](C(C)C)C(=O)O[C@H]4C)c3nc-2c(C(=O)N[C@@H]2C(=O)N[C@H](C(C)C)C(=O)N3CCC[C@H]3C(=O)N(C)CC(=O)N(C)[C@@H](C(C)C)C(=O)O[C@H]2C)c(N)c1=O (I: [aThr][dV]P[Sar][NMeV] / II: [aThr][dV]P[Sar][NMeV]; ester I:1-I:C, II:1-II:C; linker I:N-II:N via Actinocin(9to1))
T/C [4]: 150 % of control and 165 % of control
T/C [5]: 156 % of control and 164 % of control and 193 % of control
T/C [6]: 203 % of control
T/C [7]: 117 % of control

CCOC(=O)n1cnc2ncnc(SC)c21
T/C (dose: 15.6 mg/kg/injection, vehicle: saline): 105 % of control
T/C (dose: 31.3 mg/kg/injection, vehicle: saline): 100 % of control
T/C (dose: 62.5 mg/kg/injection, vehicle: saline): 105 % of control
T/C (dose: 125.0 mg/kg/injection, vehicle: saline): 100 % of control

CNNCc1ccc(C(=O)NC(C)C)cc1
T/C [8]: 121 % of control
T/C [9]: 121 % of control
T/C [10]: 110 % of control and 121 % of control

CN(C)/N=N/c1nc[nH]c1C(N)=O
T/C [3]: 116 % of control
T/C [8]: 120 % of control
T/C [9]: 150 % of control

O=NN(CCCl)C(=O)Nc1ccc(CCO)cc1
T/C (dose: 1.56 mg/kg/injection, vehicle: saline): 195 % of control
T/C [2]: 190 % of control

CC(CN1CC(=O)NC(=O)C1)N1CC(=O)NC(=O)C1 (centres undefined)
T/C (dose: 15.0 mg/kg/injection, vehicle: saline): 109 % of control
T/C (dose: 60.0 mg/kg/injection, vehicle: saline): 90 % of control

CC1CC(C)(O)CC(C(O)CC2CC(=O)NC(=O)C2)C1=O (centres undefined)
T/C [6]: 111 % of control
T/C [7]: 122 % of control
T/C (dose: 0.4 mg/kg/injection, vehicle: saline): 116 % of control
T/C (dose: 0.8 mg/kg/injection, vehicle: saline): 86 % of control

Nc1nc2n[nH]nc2c(=O)[nH]1
T/C [3]: 100 % of control
T/C [8]: 103 % of control
T/C [9]: 86 % of control
T/C [10]: 90 % of control

CN(C)CC(=O)c1ccc(O)c(O)c1
T/C (dose: 75.0 mg/kg/injection, vehicle: saline): 112 % of control
T/C (dose: 150.0 mg/kg/injection, vehicle: saline): 109 % of control
T/C (dose: 300.0 mg/kg/injection, vehicle: saline): 115 % of control
T/C (dose: 600.0 mg/kg/injection, vehicle: saline): 121 % of control

O=c1[nH]cc(N(CCCl)CCCl)c(=O)[nH]1
T/C (dose: 1.5 mg/kg/injection, vehicle: saline): 87 % of control and 106 % of control

COC1=C(N)C(=O)c2nc(-c3nc(C(=O)O)c(C)c(-c4ccc(OC)c(OC)c4O)c3N)ccc2C1=O
T/C [4]: 103 % of control
T/C [5]: 93 % of control and 100 % of control and 118 % of control

CC1=C2C(=C[C@@](C)(CO)[C@@H]2O)C(=O)[C@](C)(O)C12CC2
T/C [6]: 113 % of control
T/C [7]: 113 % of control

OC1CCCC2CCC[N-]C12.OC1CCCC2CCC[N-]C12.[O]=[V][OH] (centres undefined)
T/C (dose: 6.25 mg/kg/injection, vehicle: saline with Tween-80): 107 % of control
T/C (dose: 12.5 mg/kg/injection, vehicle: saline with Tween-80): 107 % of control
T/C [1]: 107 % of control

CN[C@H]1CCc2cc(OC)c(OC)c(OC)c2-c2ccc(OC)c(=O)cc21
T/C (dose: 1.25 mg/kg/injection, vehicle: saline): 100 % of control
T/C (dose: 1.3 mg/kg/injection, vehicle: saline): 100 % of control
T/C (dose: 2.5 mg/kg/injection, vehicle: saline): 100 % of control and 103 % of control
T/C (dose: 5.0 mg/kg/injection, vehicle: saline): 93 % of control and 113 % of control
T/C (dose: 10.0 mg/kg/injection, vehicle: saline): 93 % of control
